From patent US12319652B2, “Salts and solid forms of (R)-1-(5-methoxy-1H-indol-1-yl)-N,N-dimethylpropan-2-amine” (priority 2021, dated 2025)

Assay: Solubility determinations in SIF buffers (FaSSIF, FeSSIF, FaSSGF)
Type: physicochemical
Description: At this stage ca. 1 g of each front-runner salt form was prepared. Salt forms that offered significant solubility and stability advantages over the non-ionized API were prioritized. […] Scale Up
The solubility of the salts below was determined in FaSSIF, FeSSIF and FaSSGF by reference to the calibration curve of amorphous compound 1.
Separate portions of compound 1 were weighed out into aluminum boats and were charged to the relevant volumetric flasks. Solutions were made to volume with 1 to 1 (v/v) acetonitrile/purified water to give calibrants of known API concentrations and analyzed by HPLC, suitable to determine the concentration of compound 1 free base in the SIF buffer solubility study.
Each sample (150 mg) was suspended in the relevant SIF buffer (5.0 ml), to give a concentration of 30 mg/ml and maintain at 37° C. for 24 h. The pH was adjusted using 1 M HCl or 1 M NaOH, to ensure that the suspension remains in range.
Sample (1 ml) of the well-stirred representative suspensions was obtained at 1 h, 3 h, 6 h and 24 h and the pH was recorded. The pH of the bulk suspension was re-adjusted when necessary. The obtained sample from each vial was centrifuged, and the supernatant was analysed by HPLC (note, the analyte was diluted, when outside of the calibration range); XRPD analysis was performed on the wet sample pellet for evidence of form change, as well as on the oven-dried pellet (undervacuum at 40° C.).

[1] = FaSSGF (ph 1.6), t = 1 h@37° C.
[2] = FaSSGF (ph 1.6), t = 3 h@37° C.
[3] = FaSSGF (ph 1.6), t = 6 h@37° C.
[4] = FaSSGF (ph 1.6), t = 24 h @37° C.
[5] = FaSSIF (ph 6.5), t = 1 h@37° C.
[6] = FaSSIF (ph 6.5), t = 3 h@37° C.
[7] = FaSSIF (ph 6.5), t = 6 h@37° C.
[8] = FaSSIF (ph 6.5), t = 24 h @37° C.
[9] = FeSSIF (ph 5.0), t = 1 h@37° C.
[10] = FeSSIF (ph 5.0), t = 3 h@37° C.
[11] = FeSSIF (ph 5.0), t = 6 h@37° C.
[12] = FeSSIF (ph 5.0), t = 24 h @37° C.

`COc1ccc2c(ccn2C[C@@H](C)N(C)C)c1.O=C(O)/C=C\C(=O)O` [Compound 1 · Maleate] showed a Solubility [1] greater than 30 mg/mL, a Solubility [2] greater than 30 mg/mL and a Solubility [3] greater than 30 mg/mL. For the same molecule, the Solubility [4] was greater than 30 mg/mL, the Solubility [5] was greater than 30 mg/mL and the Solubility [6] was greater than 30 mg/mL. For the same molecule, the Solubility [7] was greater than 30 mg/mL, the Solubility [8] was greater than 30 mg/mL and the Solubility [9] was greater than 30 mg/mL. It also gave a Solubility [10] greater than 30 mg/mL, a Solubility [11] greater than 30 mg/mL and a Solubility [12] greater than 30 mg/mL.

In the case of `COc1ccc2c(ccn2C[C@@H](C)N(C)C)c1.Cl` [Compound 1 · HCl], the Solubility [1] was greater than 30 mg/mL, the Solubility [2] was greater than 30 mg/mL and the Solubility [3] was greater than 30 mg/mL. For the same molecule, the Solubility [4] was greater than 30 mg/mL, the Solubility [5] was greater than 30 mg/mL and the Solubility [6] was greater than 30 mg/mL. For the same molecule, the Solubility [7] was greater than 30 mg/mL, the Solubility [8] was greater than 30 mg/mL and the Solubility [9] was greater than 30 mg/mL. It also gave a Solubility [10] greater than 30 mg/mL, a Solubility [11] greater than 30 mg/mL and a Solubility [12] greater than 30 mg/mL.

With `COc1ccc2c(ccn2C[C@@H](C)N(C)C)c1.O=C(O)c1ccccc1` [Compound 1.Benzoate] the “HPLC peak RRT 1.00 (Compound 1)” value (input salt before FaSSGF) was 99.64, the “HPLC peak RRT 1.09” value (input salt before FaSSGF) was 0.03 and the “HPLC peak RRT 1.17” value (input salt before FaSSGF) was 0.03. For the same molecule, the “HPLC peak RRT 1.18” value (input salt before FaSSGF) was 0.10, the “HPLC peak RRT 1.19” value (input salt before FaSSGF) was 0.02 and the “HPLC peak RRT 1.24” value (input salt before FaSSGF) was 0.06. For the same molecule, the “HPLC peak RRT 1.28” value (input salt before FaSSGF) was 0.01, the “HPLC peak RRT 1.33” value (input salt before FaSSGF) was 0.10 and the “HPLC peak RRT 0.90” value (t = 1 h in FaSSGF) was 0.07. The “HPLC peak RRT 0.92” value (t = 1 h in FaSSGF) was 0.05, the “HPLC peak RRT 1.00 (Compound 1)” value (t = 1 h in FaSSGF) was 99.28 and the “HPLC peak RRT 1.07” value (t = 1 h in FaSSGF) was 0.04. For the same molecule, the “HPLC peak RRT 1.09” value (t = 1 h in FaSSGF) was 0.06, the “HPLC peak RRT 1.17” value (t = 1 h in FaSSGF) was 0.04 and the “HPLC peak RRT 1.19” value (t = 1 h in FaSSGF) was 0.15. The “HPLC peak RRT 1.27” value (t = 1 h in FaSSGF) was 0.11, the “HPLC peak RRT 1.28” value (t = 1 h in FaSSGF) was 0.05 and the “HPLC peak RRT 1.33” value (t = 1 h in FaSSGF) was 0.15. For the same molecule, the “HPLC peak RRT 0.97” value (t = 3 h in FaSSGF) was 0.04, the “HPLC peak RRT 1.00 (Compound 1)” value (t = 3 h in FaSSGF) was 99.62 and the “HPLC peak RRT 1.07” value (t = 3 h in FaSSGF) was 0.03. For the same molecule, the “HPLC peak RRT 1.17” value (t = 3 h in FaSSGF) was 0.15, the “HPLC peak RRT 1.33” value (t = 3 h in FaSSGF) was 0.16 and the “HPLC peak RRT 1.00 (Compound 1)” value (t = 6 h in FaSSGF) was 99.61. For the same molecule, the “HPLC peak RRT 1.17” value (t = 6 h in FaSSGF) was 0.12, the “HPLC peak RRT 1.24” value (t = 6 h in FaSSGF) was 0.08 and the “HPLC peak RRT 1.25” value (t = 6 h in FaSSGF) was 0.04. The “HPLC peak RRT 1.32” value (t = 6 h in FaSSGF) was 0.06, the “HPLC peak RRT 1.33” value (t = 6 h in FaSSGF) was 0.09 and the “HPLC peak RRT 1.00 (Compound 1)” value (t = 24 h in FaSSGF) was 99.73. For the same molecule, the “HPLC peak RRT 1.17” value (t = 24 h in FaSSGF) was 0.15, the “HPLC peak RRT 1.32” value (t = 24 h in FaSSGF) was 0.07 and the “HPLC peak RRT 1.33” value (t = 24 h in FaSSGF) was 0.06.
